# Laboratory results from patent US9629843B2, “MTOR modulators and uses thereof” (The Regents of the University of California, priority 2008, dated 2017).
# Columns and labels:
# p190 transduced cells [1] = assay: MTS viability assay of p190 transduced cells; type: cell-based, murine
# [2] = system: ENaC-dependent Na+ current; assay: ENaC-dependent Na+ transport in mpkCCD cells; conditions: prolonged treatment (>24 h)
# p190 transduced cells [3] = assay: Combination with imatinib on p190 transduced cells (MTS, combination index); type: cell-based, murine
# [4] = system: p190 BCR-Abl transformed bone marrow cells; assay: Colony forming assay with p190 BCR-Abl transformed murine bone marrow cells; type: cell-based; conditions: compared to rapamycin; FIG. 17
# PKCα = target: T1, PKCα (Homo sapiens, UniProt P17252); assay: Kinase inhibition assay, PKCα; type: biochemical; conditions: at about 1 μM or less
# T1 construct: Purified kinase domains (e.g. mTor, P110α, P110β, P110γ, P110δ, PI4Kβ, DNA-PK, PKCα, PKCβ1, PKCβII, RET, and JAK2)
# [5] = system: Akt phosphorylation (S473, T308) in L6 myotubes; assay: Akt phosphorylation in insulin stimulated L6 myotubes (immunoblot); type: cell-based; conditions: 100 nM insulin, FIG. 3
# Experimental: L6 myoblasts were grown typically grown in DMEM supplemented with about 10% FBS, glutamine and penicillin/streptomycin. Confluent L6 myoblasts were differentiated into mytubes by culturing them for approximately 5 days in media containing about 2% FBS. L6 myotubes were maintained in media containing approximately 2% FBS until use.
# In order to compare the effect of TORKinibs and PIK-90 on Akt phosphorylation, L6 myotubes were serum starved overnight and incubated with inhibitors or about 0.1% DMSO for approximately 30 minutes prior to stimulation with insulin (e.g. 100 nM) for about 10 minutes. Cells were lysed by scraping into ice cold lysis buffer (generally: 300 mM NaCl, 50 mM Tris pH 7.5, 5 mM EDTA, 1% TRITON™ X-100, 0.02% NaN3, 20 nM microcystin, Sigma phosphatase inhibitor cocktails 1 and 2, Roche protease inhibitor cocktail and 2 mM PMSF). After contacting cells with lysis buffer, the solution was briefly sonicated. Lysates were cleared by centrifugation, resolved by SDS-PAGE, transferred to nitrocellulose and immunoblotted using antibodies to phospho-Akt S473, phospho-Akt T308, Akt, and β-actin (Cell Signaling Technologies).
# [6] = system: S6K, S6, 4EBP1 phosphorylation in L6 myotubes; assay: Phosphorylation of S6K, S6 and 4EBP1 in insulin stimulated L6 myotubes; type: cell-based
# mTor = target: T2, mTor (Homo sapiens, UniProt P42345); assay: Kinase inhibition assay, mTor; type: biochemical
# T2 construct: Purified kinase domains (e.g. mTor, P110α, P110β, P110γ, P110δ, PI4Kβ, DNA-PK, PKCα, PKCβ1, PKCβII, RET, and JAK2)
# T2 sequence (P42345 2156-2469 limits assumed): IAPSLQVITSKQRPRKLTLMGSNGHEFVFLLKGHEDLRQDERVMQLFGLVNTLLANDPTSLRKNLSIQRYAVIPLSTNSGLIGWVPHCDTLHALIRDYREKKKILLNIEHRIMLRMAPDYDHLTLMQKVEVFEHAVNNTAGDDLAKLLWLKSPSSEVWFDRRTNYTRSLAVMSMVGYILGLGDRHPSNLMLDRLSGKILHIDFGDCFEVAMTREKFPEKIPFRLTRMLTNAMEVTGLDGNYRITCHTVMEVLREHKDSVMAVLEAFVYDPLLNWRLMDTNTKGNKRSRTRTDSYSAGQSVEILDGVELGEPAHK
# PI3K α = target: T3, PI3K α (Homo sapiens, UniProt P42336); assay: Kinase inhibition assay, PI3K α; type: biochemical
# T3 construct: Purified kinase domains (e.g. mTor, P110α, P110β, P110γ, P110δ, PI4Kβ, DNA-PK, PKCα, PKCβ1, PKCβII, RET, and JAK2)
# T3 sequence (P42336 765-1051 limits assumed): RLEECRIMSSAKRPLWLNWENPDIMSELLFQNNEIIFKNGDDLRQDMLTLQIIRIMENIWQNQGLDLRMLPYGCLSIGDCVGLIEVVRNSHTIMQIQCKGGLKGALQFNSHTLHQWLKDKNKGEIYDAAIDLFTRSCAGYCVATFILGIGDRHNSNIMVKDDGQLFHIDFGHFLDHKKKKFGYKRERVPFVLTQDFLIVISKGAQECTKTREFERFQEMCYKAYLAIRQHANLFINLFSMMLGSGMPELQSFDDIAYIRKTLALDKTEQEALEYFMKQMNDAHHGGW
# T3 sequence (P27986 whole entry partner, the tested form may be a part): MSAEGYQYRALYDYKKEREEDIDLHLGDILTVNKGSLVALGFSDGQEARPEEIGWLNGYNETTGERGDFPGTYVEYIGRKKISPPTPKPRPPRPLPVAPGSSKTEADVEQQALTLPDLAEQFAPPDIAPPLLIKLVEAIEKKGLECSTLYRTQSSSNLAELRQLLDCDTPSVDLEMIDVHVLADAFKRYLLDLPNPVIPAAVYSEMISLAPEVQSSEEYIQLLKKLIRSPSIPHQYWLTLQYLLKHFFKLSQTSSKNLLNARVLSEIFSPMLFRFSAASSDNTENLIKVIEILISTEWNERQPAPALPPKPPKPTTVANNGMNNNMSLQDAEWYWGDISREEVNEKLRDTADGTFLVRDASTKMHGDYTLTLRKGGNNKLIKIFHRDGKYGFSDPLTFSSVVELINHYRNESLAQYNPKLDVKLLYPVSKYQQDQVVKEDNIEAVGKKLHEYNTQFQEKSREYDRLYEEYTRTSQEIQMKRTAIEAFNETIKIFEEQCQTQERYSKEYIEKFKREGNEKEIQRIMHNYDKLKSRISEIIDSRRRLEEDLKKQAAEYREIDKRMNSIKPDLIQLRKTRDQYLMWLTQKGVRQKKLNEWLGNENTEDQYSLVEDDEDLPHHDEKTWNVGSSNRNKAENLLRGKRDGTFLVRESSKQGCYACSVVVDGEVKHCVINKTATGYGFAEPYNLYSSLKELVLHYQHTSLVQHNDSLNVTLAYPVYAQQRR
# PI3K β = target: T4, PI3K β (Homo sapiens, UniProt P42338); assay: Kinase inhibition assay, PI3K β; type: biochemical
# T4 construct: Purified kinase domains (e.g. mTor, P110α, P110β, P110γ, P110δ, PI4Kβ, DNA-PK, PKCα, PKCβ1, PKCβII, RET, and JAK2)
# T4 sequence (P42338 772-1053 limits assumed): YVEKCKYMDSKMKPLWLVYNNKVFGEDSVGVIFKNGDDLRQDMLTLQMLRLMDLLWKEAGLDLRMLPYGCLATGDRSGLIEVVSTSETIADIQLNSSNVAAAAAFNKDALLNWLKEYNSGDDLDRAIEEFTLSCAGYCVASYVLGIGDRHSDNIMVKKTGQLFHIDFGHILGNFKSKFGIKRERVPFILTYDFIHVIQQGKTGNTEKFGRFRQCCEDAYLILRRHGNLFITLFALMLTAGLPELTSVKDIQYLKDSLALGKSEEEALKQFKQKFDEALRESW
# T4 sequence (P27986 whole entry partner, the tested form may be a part): as the sequence (P27986 whole entry partner, the tested form may be a part) above
# PI3K δ = target: T5, PI3K δ (Homo sapiens, UniProt O00329); assay: Kinase inhibition assay, PI3K δ; type: biochemical
# T5 construct: Purified kinase domains (e.g. mTor, P110α, P110β, P110γ, P110δ, PI4Kβ, DNA-PK, PKCα, PKCβ1, PKCβII, RET, and JAK2)
# T5 sequence (O00329 745-1027 limits assumed): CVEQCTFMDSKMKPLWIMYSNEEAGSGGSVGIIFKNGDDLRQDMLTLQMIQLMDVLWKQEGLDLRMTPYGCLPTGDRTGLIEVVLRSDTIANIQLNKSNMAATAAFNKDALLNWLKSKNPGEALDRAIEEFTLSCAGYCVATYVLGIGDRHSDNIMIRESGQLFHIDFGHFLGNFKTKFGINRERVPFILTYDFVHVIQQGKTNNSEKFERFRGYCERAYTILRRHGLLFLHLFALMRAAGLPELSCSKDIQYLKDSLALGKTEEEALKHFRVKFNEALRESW
# T5 sequence (P27986 whole entry partner, the tested form may be a part): as the sequence (P27986 whole entry partner, the tested form may be a part) above
# PC3 cells = assay: Inhibition of proliferation of PC3 cells; type: cell-based; conditions: Homo sapiens, PC-3
# Ph− B-ALL = assay: Colony assay using Ph− B-ALL specimens; type: cell-based, Human; conditions: expected
# [7] = system: CD19+ CD34+ B cell progenitors from Ph+ and Ph− patients; assay: Colony forming assay with human B-ALL cells; type: cell-based; conditions: about 50 nM dasatinib; FIG. 18
# p190 leukemic cells = assay: Syngenic mouse leukemia transplant model (p190); type: in vivo, Balb/c mice; conditions: for number of cycling leukemic blasts / apoptosis of leukemic blast cells: bone marrow and spleen; for number of cycling leukemic blasts: FIG. 23; for apoptosis of leukemic blast cells: FIG. 24
# Experimental: The murine bone marrow infection/transplantation method was used to determine the effect of kinase inhibitors on disregulated cellular proliferation […]. The MSCV-p190-BCR-Abl-Ires-GFP (MIG-p190) or MSCV-p190-BCR-Abl-Ires-hCD4Δtail (MIC-p190) retroviral vectors were assembled in 293T cells and used to transduce bone marrow cells. The GFP and CD4Δtail markers allow quantitation by FACS analysis and/or enrichment by magnetic sorting of transduced cells.
# These cells were administered together with a radioprotective dose of about 5×10^6 normal bone marrow cells from 3-5 week old donor Balb/c mice. […] Mice who became sick after about 14 days were euthanized and lymphoid organs were harvested for analysis. Kinase inhibitor treatment began about 10 days after leukemic cell injection and continued daily until the mice became sick or a maximum of approximately 35 days post-transplant. Inhibitors were given by oral lavage.
# Peripheral blood cells were collected approximately on day 10 (pre-treatment) and upon euthanization (post treatment), contacted with labeled anti-hCD4 antibodies and counted by flow cytometry.
# Mice were injected with the BrdU analogue EdU and sacrificed. Bone marrow and spleen were collected, blast cells were harvested from the tissue, and stained with antibodies to hCD4, and analyzed by flow cytomtery.
# Bone marrow and spleen were collected, blast cells were harvested from the tissue, and stained with antibodies to hCD4, Annexin V, and 7AAD, and analyzed by flow cytometry. […] The results also show significant increase at the concentrations examined in induction of apoptosis at the concentrations examined of imatinib in combination with rapamycin or PI-103.
# PI3K γ = target: T6, PI3K γ (Homo sapiens, UniProt P48736); assay: Kinase inhibition assay, PI3K γ; type: biochemical
# T6 construct: Purified kinase domains (e.g. mTor, P110α, P110β, P110γ, P110δ, PI4Kβ, DNA-PK, PKCα, PKCβ1, PKCβII, RET, and JAK2)
# T6 sequence (P48736 797-1080 limits assumed): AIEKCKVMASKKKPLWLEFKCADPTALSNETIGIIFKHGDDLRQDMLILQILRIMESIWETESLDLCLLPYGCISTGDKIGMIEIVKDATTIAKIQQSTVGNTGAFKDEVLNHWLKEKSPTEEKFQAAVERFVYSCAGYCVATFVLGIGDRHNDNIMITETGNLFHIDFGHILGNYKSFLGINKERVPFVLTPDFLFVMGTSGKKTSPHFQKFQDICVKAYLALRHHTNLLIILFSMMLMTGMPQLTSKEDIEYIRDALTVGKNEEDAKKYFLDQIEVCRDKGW
# [8] = system: Akt phosphorylation (S473, T308) in MEFs; assay: Akt phosphorylation in wild-type and SIN1−/− mouse embryonic fibroblasts (immunoblot); type: cell-based; conditions: SIN1−/− MEFs
# Experimental: Wild-type and SIN1−/− primary mouse embryonic fibroblasts (MEFs) were grown in DMEM supplemented with about 10% FBS, glutamine and penicillin/streptomycin. MEFs were treated with TORKinib at about 2.5, 0.63, and 0.16 uM; rapamycin at approximately 15 nM; or PIK-90 at 625 nM for 30 minutes prior to insulin stimulation (e.g. 100 nM) for 10 minutes. Cells were lysed by scraping into ice cold lysis buffer (typically 300 mM NaCl, 50 mM Tris pH 7.5, 5 mM EDTA, 1% TRITON™ X-100, 0.02% NaN3, 20 nM microcystin, Sigma phosphatase inhibitor cocktails 1 and 2, Roche protease inhibitor cocktail and 2 mM PMSF). After contacting cells with lysis buffer, the solution was briefly sonicated. Lysates were cleared by centrifugation, resolved by SDS-PAGE, transferred to nitrocellulose and immunoblotted using antibodies to phospho-Akt S473, phospho-Akt T308, Akt, and β-actin (Cell Signaling Technologies).
# [9] = system: Akt substrates (GSK3, TSC2, FoxO1/O3a) in L6 myotubes; assay: Phosphorylation of Akt substrates in insulin stimulated L6 myotubes; type: cell-based; conditions: FIG. 6
# [10] = system: cap-dependent translation; assay: Cap-dependent translation, m7GTP affinity, p190 cells; type: cell-based; conditions: IM at 5 μM; FIG. 38D
# AML = assay: Colony assay using AML specimens; type: cell-based, Human; conditions: expected
# Experimental: Human Ph− B-ALL and AML specimens are obtained. Ph− B-ALL and AML are cytogenetically diverse, with diverse therapeutic regimens currently in use depending on patient risk factors. The majority of Ph− B-ALL patients are treated initially with a combination of three drugs: glucocorticoid (e.g. dexamethasone), vincristine, and asparaginase or anthracycline (e.g. daunorubicin). Most AML patients receive an anthracycline only. Pilot experiments with 3 patient samples are conducted to determine concentrations of vincristine (Ph− ALL) or daunorubicin (AML) that partially reduce colony formation in methylcellulose. It is expected that these drugs are effective in the range of 0.1-1 μM (vincristine) and 3-30 nM (daunorubicin). Optionally, the Ph-ALL assays may be supplemented with dexamethasone and/or daunorubicin.
# [11] = system: myristolated-Akt transgenic thymocytes tumors; assay: Akt murine allograft tumor model; type: in vivo, NOD/SCID mice; conditions: after 20 days of treatment
smiles,measurement,setting,value
Cc1ccccc1-n1c(Cn2cnc3c(N)ncnc32)nc2cccc(C)c2c1=O [IC87114],type of effect on cell viability,"p190 transduced cells [1]; plateau at high concentrations, 48 hrs",primarily cytostatic
"O=c1cc(N2CCOCC2)oc2c(-c3ccccc3)cccc12 [LY294002, reference compound]",toxic effect of prolonged treatment,[2],diminishes electrical resistance and causes morphological changes
Cn1c(=O)n(-c2ccc(C(C)(C)C#N)cc2)c2c3cc(-c4cnc5ccccc5c4)ccc3ncc21 [BEZ235],IC50,"p190 transduced cells [1]; Mus musculus, stated as treatment concentration = IC50",~5 nM
same,synergy with imatinib (combination index),"p190 transduced cells [3]; over a broad dose range, FIG. 16",moderate to strong synergy
same,colony forming activity in combination with imatinib,[4],potentiate the effects of a half maximal concentration of imatinib
CC(C)n1nc(-c2cccc(C(=O)NC3=NCCS3)c2)c2c(N)ncnc21 [PP30],inhibition of PKCα,PKCα,does not inhibit PKCα significantly
same,insulin stimulated phosphorylation of Akt at S473 and T308,[5],inhibit insulin stimulated phosphorylation of Akt at S473
same,phosphorylation of 4EBP1 at T37/46,[6],able to inhibit
CC(=O)N1CCC(n2nc(-c3cc4cc(O)ccc4[nH]3)c3c(N)ncnc32)CC1,IC50,mTor,14 nM
same,IC50,PI3K α,5750 nM
same,IC50,PI3K β,25000 nM
same,IC50,PI3K δ,9800 nM
same,IC50,PC3 cells,11800 nM
"CC[C@]1(O)C[C@H]2CN(CCc3c([nH]c4ccccc34)[C@@](C(=O)OC)(c3cc4c(cc3OC)N(C=O)[C@H]3[C@@](O)(C(=O)OC)[C@H](OC(C)=O)[C@]5(CC)C=CCN6CC[C@]43[C@@H]65)C2)C1 [vincristine, reference compound]","effective range, partial reduction of colony formation",Ph− B-ALL,0.1 to 1 µM
Oc1cccc(-c2nc(N3CCOCC3)c3oc4ncccc4c3n2)c1 [PI-103],effect on anti-proliferative effects of imatinib,"p190 transduced cells [3]; 48 hrs MTS, FIG. 19",potentiate the anti-proliferative effects of imatinib
same,combination index with imatinib,"p190 transduced cells [3]; over a broad dose range, FIG. 20",more synergistic than rapamycin
same,colony formation in combination with dasatinib,[7],stronger effect of dasatinib-PI-103 combination as compared to dasatinib-rapamycin combination
same,number of cycling leukemic blasts,p190 leukemic cells,significantly reduced the number of cycling leukemic blasts
same,apoptosis of leukemic blast cells,p190 leukemic cells,induction of apoptosis in leukemic blast cells
CC(C)n1nc(-c2cc3ccc(O)cc3[nH]2)c2c(N)ncnc21,IC50,mTor,26 nM
same,IC50,PI3K α,279 nM
same,IC50,PI3K β,2160 nM
same,IC50,PI3K γ,115 nM
same,IC50,PI3K δ,395 nM
same,IC50,PC3 cells,1000 nM
"COc1ccc2c(c1OC)N=C(NC(=O)c1cccnc1)N1CCN=C21 [PIK-90, reference compound]",insulin stimulated phosphorylation of Akt at S473 and T308,[5],inhibit the phosphorylation of both Akt sites equipotently
same,phosphorylation of Akt T308,[8],blocks phosphorylation of T308
same,phosphorylation of Akt and its substrates,[9],completely inhibited
same,phosphorylation of 4EBP1 at T37/46,[6],does not reduce
CC(C)n1nc(-c2cc3ccccc3[nH]2)c2c(N)ncnc21,IC50,mTor,79 nM
same,IC50,PI3K α,11200 nM
same,IC50,PC3 cells,2060 nM
Cc1ccc(NC(=O)c2ccc(CN3CCN(C)CC3)cc2)cc1Nc1nccc(-c2cccnc2)n1 [imatinib],number of cycling leukemic blasts,p190 leukemic cells,significantly reduced the number of cycling leukemic blasts
same,apoptosis of leukemic blast cells,p190 leukemic cells,induction of apoptosis in leukemic blast cells
same,splenomegaly,"p190 leukemic cells; oral lavage daily, FIG. 21",significant decrease in splenomegaly
same,cap-dependent translation,[10],inhibit cap-dependent translation
COc1cccc2c1C(=O)c1c(O)c3c(c(O)c1C2=O)C[C@@](O)(C(C)=O)C[C@@H]3O[C@H]1C[C@H](N)[C@H](O)[C@H](C)O1 [daunorubicin],"effective range, partial reduction of colony formation",AML,3 to 30 nM
CC(C)n1nc(-c2cc3cccc(O)c3[nH]2)c2c(N)ncnc21,IC50,mTor,0.7 nM
same,IC50,PI3K α,3460 nM
same,IC50,PI3K β,3580 nM
same,IC50,PI3K γ,450 nM
same,IC50,PI3K δ,330 nM
same,IC50,PC3 cells,38 nM
"CO[C@H]1C[C@@H]2CC[C@@H](C)[C@@](O)(O2)C(=O)C(=O)N2CCCC[C@H]2C(=O)O[C@H]([C@H](C)C[C@@H]2CC[C@@H](O)[C@H](OC)C2)CC(=O)[C@H](C)/C=C(\C)[C@@H](O)[C@@H](OC)C(=O)[C@H](C)C[C@H](C)/C=C/C=C/C=C/1C [rapamycin, reference compound]",body weight,[11],maintained body weight
